As usually defined, the Kd is the free concentration of one partner at which half of the binding sites on the other are occupied at equilibrium, for simple one-to-one binding. Read a high Kd as lower affinity.

For one assay, the target named is T1, 5G-XoxF (Methylotuvimicrobium buryatense, UniProt A0A3F2YLY8).
T1 sequence (A0A3F2YLY8 27-617): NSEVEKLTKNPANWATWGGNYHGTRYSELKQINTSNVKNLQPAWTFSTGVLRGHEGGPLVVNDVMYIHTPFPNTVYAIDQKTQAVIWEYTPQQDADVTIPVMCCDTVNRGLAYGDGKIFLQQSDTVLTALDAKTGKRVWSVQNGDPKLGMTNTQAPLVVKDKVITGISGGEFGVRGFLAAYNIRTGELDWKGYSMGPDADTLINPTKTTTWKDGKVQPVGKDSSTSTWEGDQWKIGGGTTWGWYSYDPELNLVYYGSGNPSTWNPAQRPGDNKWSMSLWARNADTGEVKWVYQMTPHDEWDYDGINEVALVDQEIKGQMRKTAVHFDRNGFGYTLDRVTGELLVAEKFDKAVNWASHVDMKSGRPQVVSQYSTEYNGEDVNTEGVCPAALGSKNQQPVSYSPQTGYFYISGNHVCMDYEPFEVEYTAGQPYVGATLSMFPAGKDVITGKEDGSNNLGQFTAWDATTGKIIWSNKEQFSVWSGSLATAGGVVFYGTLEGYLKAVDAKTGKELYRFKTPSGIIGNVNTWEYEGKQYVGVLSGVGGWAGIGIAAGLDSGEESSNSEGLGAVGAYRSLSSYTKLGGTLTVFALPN
Kind of assay: DCPIP dye-linked dehydrogenase assay, A600. It counts as biochemical. The note with it: PMS mediator, DCPIP acceptor; La(III) enzyme; 30 °C; 1.5 μM enzyme.

For assay [1], the target named is XoxF from Methylomicrobium buryatense 5GB1C (Methylomicrobium buryatense 5GB1C). Kind of assay: BLI. Background: BLI is a label-free optical method that tracks binding on a fibre tip over time.

In the case of `CO` [methanol], at 5G-XoxF, the specific activity result is “Purified 5G-XoxF exhibits methanol oxidation activity”.

With “particulate methane monooxygenase from Methylomicrobium buryatense 5GB1C (complex)”, the Kd in assay [1] was 50 µM.

For the origin of these results see publication PMC6370294 (Journal of biological inorganic chemistry : JBIC : a …, 2018).
